Results reported in ChEMBL document CHEMBL4507290 (2021).

Tests used:
[1] = target: Mitogen-activated protein kinase 8 (Homo sapiens) (UniProt P45983); settings: Compound concentration 1000.0 nM
[2] = tested on: Epidermal growth factor receptor (Homo sapiens), P00533 [UNDEFINED MUTATION]; settings: Compound concentration 1000.0 nM
[3] = target: Mitogen-activated protein kinase kinase kinase kinase 2 (Homo sapiens) (UniProt Q12851); settings: Compound concentration 1000.0 nM
[4] = target: Ribosomal protein S6 kinase alpha-3 (Homo sapiens) (UniProt P51812); settings: Compound concentration 1000.0 nM
[5] = target: Citron Rho-interacting kinase (Homo sapiens) (UniProt O14578); settings: Compound concentration 1000.0 nM
[6] = target: Calcium/calmodulin-dependent protein kinase type II subunit delta (Homo sapiens) (UniProt Q13557); settings: Compound concentration 1000.0 nM
[7] = target: Cyclin-dependent kinase 18 (Homo sapiens) (UniProt Q07002); settings: Compound concentration 1000.0 nM
[8] = target: Angiopoietin-1 receptor (Homo sapiens) (UniProt Q02763); settings: Compound concentration 1000.0 nM
[9] = target: 3-phosphoinositide-dependent protein kinase 1 (Homo sapiens) (UniProt O15530); settings: Compound concentration 1000.0 nM
[10] = target: Interleukin-1 receptor-associated kinase 3 (Homo sapiens) (UniProt Q9Y616); settings: Compound concentration 1000.0 nM
[11] = target: Proto-oncogene tyrosine-protein kinase ROS (Homo sapiens) (UniProt P08922); settings: Compound concentration 1000.0 nM
[12] = tested on: Phosphatidylinositol 4,5-bisphosphate 3-kinase catalytic subunit alpha isoform (Homo sapiens), P42336 [H1047Y]; settings: Compound concentration 1000.0 nM
[13] = target: Myosin light chain kinase, smooth muscle (Homo sapiens) (UniProt Q15746); settings: Compound concentration 1000.0 nM
Sequence of Myosin light chain kinase, smooth muscle (Homo sapiens) (Q15746 whole entry): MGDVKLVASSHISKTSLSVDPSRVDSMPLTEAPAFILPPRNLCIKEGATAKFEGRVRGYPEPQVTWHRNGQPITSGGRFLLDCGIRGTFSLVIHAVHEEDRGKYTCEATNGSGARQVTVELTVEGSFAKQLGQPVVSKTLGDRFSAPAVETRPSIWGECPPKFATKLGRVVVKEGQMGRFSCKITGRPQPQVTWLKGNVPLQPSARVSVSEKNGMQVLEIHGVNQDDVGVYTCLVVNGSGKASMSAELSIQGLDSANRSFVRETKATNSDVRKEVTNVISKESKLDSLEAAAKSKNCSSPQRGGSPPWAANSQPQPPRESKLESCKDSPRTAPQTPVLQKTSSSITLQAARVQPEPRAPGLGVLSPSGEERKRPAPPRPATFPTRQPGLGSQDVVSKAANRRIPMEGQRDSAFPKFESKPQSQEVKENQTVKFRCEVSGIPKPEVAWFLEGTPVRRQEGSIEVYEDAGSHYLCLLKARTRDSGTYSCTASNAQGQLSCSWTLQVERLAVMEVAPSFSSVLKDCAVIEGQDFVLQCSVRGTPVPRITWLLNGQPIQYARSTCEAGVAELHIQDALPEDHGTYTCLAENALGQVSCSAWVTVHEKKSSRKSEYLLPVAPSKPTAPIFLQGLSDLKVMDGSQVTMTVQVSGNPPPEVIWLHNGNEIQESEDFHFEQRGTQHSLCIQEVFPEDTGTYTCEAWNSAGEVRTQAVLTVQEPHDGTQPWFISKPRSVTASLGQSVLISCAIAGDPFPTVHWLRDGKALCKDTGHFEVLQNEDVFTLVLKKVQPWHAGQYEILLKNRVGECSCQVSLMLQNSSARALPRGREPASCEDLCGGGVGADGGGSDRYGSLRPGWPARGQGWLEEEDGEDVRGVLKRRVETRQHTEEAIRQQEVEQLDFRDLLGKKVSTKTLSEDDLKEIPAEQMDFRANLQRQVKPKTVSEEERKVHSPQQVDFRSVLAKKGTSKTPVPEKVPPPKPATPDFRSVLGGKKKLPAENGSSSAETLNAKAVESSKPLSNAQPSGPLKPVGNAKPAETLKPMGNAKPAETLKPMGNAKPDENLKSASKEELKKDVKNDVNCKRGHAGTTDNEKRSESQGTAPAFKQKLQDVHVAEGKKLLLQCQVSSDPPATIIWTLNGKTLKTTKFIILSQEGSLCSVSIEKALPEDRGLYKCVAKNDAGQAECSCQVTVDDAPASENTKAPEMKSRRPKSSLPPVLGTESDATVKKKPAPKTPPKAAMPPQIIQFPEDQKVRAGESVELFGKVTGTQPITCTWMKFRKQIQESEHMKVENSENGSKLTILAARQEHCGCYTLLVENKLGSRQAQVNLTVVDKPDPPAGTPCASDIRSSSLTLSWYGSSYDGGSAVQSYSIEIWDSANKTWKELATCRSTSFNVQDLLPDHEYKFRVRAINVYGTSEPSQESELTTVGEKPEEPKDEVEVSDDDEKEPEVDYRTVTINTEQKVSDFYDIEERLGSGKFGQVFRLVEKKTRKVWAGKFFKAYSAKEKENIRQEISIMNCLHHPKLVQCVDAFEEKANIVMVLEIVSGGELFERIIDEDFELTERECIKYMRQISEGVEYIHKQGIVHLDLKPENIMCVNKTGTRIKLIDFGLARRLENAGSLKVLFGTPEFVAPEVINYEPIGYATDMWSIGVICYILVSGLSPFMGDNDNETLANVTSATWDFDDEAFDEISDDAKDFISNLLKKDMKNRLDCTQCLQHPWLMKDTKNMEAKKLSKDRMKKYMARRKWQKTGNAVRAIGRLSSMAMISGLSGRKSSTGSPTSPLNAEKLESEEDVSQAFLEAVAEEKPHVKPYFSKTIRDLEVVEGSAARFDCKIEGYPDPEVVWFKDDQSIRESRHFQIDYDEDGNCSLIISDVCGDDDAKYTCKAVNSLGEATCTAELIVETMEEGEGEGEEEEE

[14] = target: Serine/threonine-protein kinase 32C (Homo sapiens) (UniProt Q86UX6); settings: Compound concentration 1000.0 nM
Sequence of Serine/threonine-protein kinase 32C (Homo sapiens) (Q86UX6 whole entry): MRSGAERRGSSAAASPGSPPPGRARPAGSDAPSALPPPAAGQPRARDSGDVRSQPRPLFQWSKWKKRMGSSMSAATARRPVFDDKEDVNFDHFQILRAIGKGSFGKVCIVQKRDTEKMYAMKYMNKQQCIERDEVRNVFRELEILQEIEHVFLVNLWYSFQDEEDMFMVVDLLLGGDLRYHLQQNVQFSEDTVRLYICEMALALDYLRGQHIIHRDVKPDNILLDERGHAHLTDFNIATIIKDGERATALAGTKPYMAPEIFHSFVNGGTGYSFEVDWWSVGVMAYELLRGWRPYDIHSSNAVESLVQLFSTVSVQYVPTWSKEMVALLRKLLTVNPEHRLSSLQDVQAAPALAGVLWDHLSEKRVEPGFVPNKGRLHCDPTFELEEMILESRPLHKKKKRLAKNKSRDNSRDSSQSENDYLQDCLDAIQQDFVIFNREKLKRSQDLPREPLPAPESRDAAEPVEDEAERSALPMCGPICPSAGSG

[15] = target: Mitogen-activated protein kinase kinase kinase 13 (Homo sapiens) (UniProt O43283); settings: Compound concentration 1000.0 nM
[16] = target: Dual specificity mitogen-activated protein kinase kinase 2 (Homo sapiens) (UniProt P36507); settings: Compound concentration 1000.0 nM
[17] = target: Serine/threonine-protein kinase PAK 6 (Homo sapiens) (UniProt Q9NQU5); settings: Compound concentration 1000.0 nM
[18] = target: Serine/threonine-protein kinase Nek4 (Homo sapiens) (UniProt P51957); settings: Compound concentration 1000.0 nM
[19] = target: TRAF2 and NCK-interacting protein kinase (Homo sapiens) (UniProt Q9UKE5); settings: Compound concentration 1000.0 nM
[20] = target: Activin receptor type-1 (Homo sapiens) (UniProt Q04771); settings: Compound concentration 1000.0 nM
[21] = target: Calcium/calmodulin-dependent protein kinase type II subunit beta (Homo sapiens) (UniProt Q13554); settings: Compound concentration 1000.0 nM
[22] = target: Serine/threonine-protein kinase N2 (Homo sapiens) (UniProt Q16513); settings: Compound concentration 1000.0 nM
[23] = target: Mitogen-activated protein kinase kinase kinase 14 (Homo sapiens) (UniProt Q99558); settings: Compound concentration 1000.0 nM
Sequence of Mitogen-activated protein kinase kinase kinase 14 (Homo sapiens) (Q99558 whole entry, looked up, canonical isoform): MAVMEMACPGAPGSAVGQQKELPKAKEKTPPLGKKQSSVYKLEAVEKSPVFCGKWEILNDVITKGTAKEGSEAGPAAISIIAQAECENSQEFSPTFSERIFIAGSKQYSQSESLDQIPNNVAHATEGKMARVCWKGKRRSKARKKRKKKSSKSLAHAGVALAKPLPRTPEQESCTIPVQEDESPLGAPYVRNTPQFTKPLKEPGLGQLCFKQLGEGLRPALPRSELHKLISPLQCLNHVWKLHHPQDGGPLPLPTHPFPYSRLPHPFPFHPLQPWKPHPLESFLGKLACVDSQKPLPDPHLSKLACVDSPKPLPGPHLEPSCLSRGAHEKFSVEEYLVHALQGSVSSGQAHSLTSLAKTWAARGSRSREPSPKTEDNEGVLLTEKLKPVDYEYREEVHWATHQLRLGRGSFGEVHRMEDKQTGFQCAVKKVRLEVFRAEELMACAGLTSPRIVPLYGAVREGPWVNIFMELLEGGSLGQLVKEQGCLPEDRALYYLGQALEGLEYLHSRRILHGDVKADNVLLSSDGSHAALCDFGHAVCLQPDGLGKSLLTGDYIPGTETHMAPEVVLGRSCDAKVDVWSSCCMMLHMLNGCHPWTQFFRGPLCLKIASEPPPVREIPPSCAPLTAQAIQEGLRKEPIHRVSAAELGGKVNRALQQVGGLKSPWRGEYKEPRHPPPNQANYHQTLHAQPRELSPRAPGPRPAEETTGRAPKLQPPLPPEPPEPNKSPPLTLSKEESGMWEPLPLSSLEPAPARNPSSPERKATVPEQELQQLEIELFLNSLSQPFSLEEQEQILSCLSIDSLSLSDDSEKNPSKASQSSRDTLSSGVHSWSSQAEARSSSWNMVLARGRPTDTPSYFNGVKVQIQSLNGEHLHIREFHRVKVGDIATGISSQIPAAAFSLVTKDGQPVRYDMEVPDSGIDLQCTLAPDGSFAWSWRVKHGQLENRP

[24] = target: Phosphorylase b kinase regulatory subunit alpha, liver isoform (Homo sapiens) (UniProt P46019); settings: Compound concentration 1000.0 nM
Sequence of Phosphorylase b kinase regulatory subunit alpha, liver isoform (Homo sapiens) (P46019 whole entry, canonical isoform): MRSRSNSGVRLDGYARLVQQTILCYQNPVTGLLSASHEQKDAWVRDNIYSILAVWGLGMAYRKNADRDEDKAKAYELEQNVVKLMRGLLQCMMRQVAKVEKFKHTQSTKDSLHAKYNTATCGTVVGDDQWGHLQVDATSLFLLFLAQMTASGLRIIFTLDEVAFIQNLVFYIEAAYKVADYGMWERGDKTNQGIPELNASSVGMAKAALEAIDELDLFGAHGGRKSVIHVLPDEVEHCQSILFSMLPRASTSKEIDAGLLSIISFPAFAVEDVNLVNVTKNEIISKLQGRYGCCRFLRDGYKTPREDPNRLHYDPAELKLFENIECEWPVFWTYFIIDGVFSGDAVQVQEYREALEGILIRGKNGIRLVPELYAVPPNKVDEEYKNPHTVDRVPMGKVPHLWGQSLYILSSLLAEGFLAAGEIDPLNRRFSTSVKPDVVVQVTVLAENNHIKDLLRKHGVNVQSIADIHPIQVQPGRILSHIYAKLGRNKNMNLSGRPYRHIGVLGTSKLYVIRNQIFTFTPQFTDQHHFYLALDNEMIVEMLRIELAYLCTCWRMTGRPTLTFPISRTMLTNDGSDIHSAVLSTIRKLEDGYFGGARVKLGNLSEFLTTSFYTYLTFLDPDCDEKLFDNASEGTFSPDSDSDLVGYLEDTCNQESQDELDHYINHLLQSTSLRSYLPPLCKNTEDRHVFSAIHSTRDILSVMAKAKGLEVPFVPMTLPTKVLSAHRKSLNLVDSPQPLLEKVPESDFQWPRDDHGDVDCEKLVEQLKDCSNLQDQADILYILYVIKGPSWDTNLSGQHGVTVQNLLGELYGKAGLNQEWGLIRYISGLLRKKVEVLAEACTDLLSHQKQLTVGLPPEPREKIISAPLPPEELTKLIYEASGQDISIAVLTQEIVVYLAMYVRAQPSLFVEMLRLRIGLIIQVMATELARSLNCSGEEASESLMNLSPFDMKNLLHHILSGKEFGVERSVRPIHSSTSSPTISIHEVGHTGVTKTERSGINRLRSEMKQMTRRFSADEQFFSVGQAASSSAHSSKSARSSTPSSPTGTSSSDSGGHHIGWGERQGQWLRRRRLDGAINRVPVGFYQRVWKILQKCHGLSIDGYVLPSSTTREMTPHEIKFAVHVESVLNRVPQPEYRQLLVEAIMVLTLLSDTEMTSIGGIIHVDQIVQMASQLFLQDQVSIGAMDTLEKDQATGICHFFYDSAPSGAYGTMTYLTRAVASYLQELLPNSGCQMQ

[25] = target: Ephrin type-A receptor 8 (Homo sapiens) (UniProt P29322); settings: Compound concentration 1000.0 nM
[26] = target: Death-associated protein kinase 1 (Homo sapiens) (UniProt P53355); settings: Compound concentration 1000.0 nM
[27] = target: Muscarinic acetylcholine receptor M1 (Homo sapiens) (UniProt P11229); settings: Compound concentration 10.0 uM
[28] = target: STE20/SPS1-related proline-alanine-rich protein kinase (Homo sapiens) (UniProt Q9UEW8); settings: Compound concentration 1000.0 nM
[29] = target: Tyrosine-protein kinase receptor TYRO3 (Homo sapiens) (UniProt Q06418); settings: Compound concentration 1000.0 nM
[30] = target: Beta-2 adrenergic receptor (Homo sapiens) (UniProt P07550); settings: Compound concentration 10.0 uM
[31] = target: Tyrosine-protein kinase FRK (Homo sapiens) (UniProt P42685); settings: Compound concentration 1000.0 nM
[32] = target: Tyrosine-protein kinase receptor UFO (Homo sapiens) (UniProt P30530); settings: Compound concentration 1000.0 nM
[33] = target: Receptor-interacting serine/threonine-protein kinase 4 (Homo sapiens) (UniProt P57078); settings: Compound concentration 1000.0 nM
[34] = target: Cyclin-dependent kinase 2 (Homo sapiens) (UniProt P24941); settings: Compound concentration 1000.0 nM
[35] = target: Protein kinase C epsilon type (Homo sapiens) (UniProt Q02156); settings: Compound concentration 1000.0 nM
[36] = target: Ribosomal protein S6 kinase alpha-4 (Homo sapiens) (UniProt O75676); settings: Compound concentration 1000.0 nM
[37] = target: Phosphatidylinositol 5-phosphate 4-kinase type-2 gamma (Homo sapiens) (UniProt Q8TBX8); settings: Compound concentration 1000.0 nM
[38] = target: Activin receptor type-2A (Homo sapiens) (UniProt P27037); settings: Compound concentration 1000.0 nM
[39] = target: ALK tyrosine kinase receptor (Homo sapiens) (UniProt Q9UM73); settings: Compound concentration 1000.0 nM
[40] = tested on: Epidermal growth factor receptor (Homo sapiens), P00533 [L858R,T790M]; settings: Compound concentration 1000.0 nM
[41] = target: Insulin-like growth factor 1 receptor (Homo sapiens) (UniProt P08069); settings: Compound concentration 1000.0 nM
[42] = target: Cyclin-dependent kinase-like 5 (Homo sapiens) (UniProt O76039); settings: Compound concentration 1000.0 nM
[43] = target: Serine/threonine-protein kinase DCLK2 (Homo sapiens) (UniProt Q8N568); settings: Compound concentration 1000.0 nM
[44] = target: Focal adhesion kinase 1 (Homo sapiens) (UniProt Q05397); settings: Compound concentration 1000.0 nM
[45] = target: Serine/threonine-protein kinase 32A (Homo sapiens) (UniProt Q8WU08); settings: Compound concentration 1000.0 nM
Sequence of Serine/threonine-protein kinase 32A (Homo sapiens) (Q8WU08 whole entry): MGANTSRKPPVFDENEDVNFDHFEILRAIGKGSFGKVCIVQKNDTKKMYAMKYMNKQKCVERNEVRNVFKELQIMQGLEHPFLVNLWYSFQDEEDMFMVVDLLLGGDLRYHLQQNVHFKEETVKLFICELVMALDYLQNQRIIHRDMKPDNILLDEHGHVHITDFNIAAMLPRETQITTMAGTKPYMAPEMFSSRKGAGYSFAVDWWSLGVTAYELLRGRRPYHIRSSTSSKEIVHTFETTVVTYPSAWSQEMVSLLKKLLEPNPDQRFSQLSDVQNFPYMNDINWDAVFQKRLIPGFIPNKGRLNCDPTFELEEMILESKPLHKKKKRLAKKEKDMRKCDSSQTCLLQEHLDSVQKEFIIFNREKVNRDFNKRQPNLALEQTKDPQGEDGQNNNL

CN([C@@H]1CCc2c(CC(=O)O)c3cc(S(C)(=O)=O)ccc3n2C1)S(=O)(=O)c1ccc(F)cc1
inactive: residual activity [1] 90% | residual activity [2] 80% | residual activity [3] 90% | residual activity [4] 80% | residual activity [5] 96% | residual activity [6] 100% | residual activity [7] 100% | residual activity [8] 88% | residual activity [9] 100% | residual activity [10] 100% | residual activity [11] 87% | residual activity [12] 90% | residual activity [13] 94% | residual activity [14] 100% | residual activity [15] 100% | residual activity [16] 95% | residual activity [17] 100% | residual activity [18] 91% | residual activity [19] 100% | residual activity [20] 90% | residual activity [21] 100% | residual activity [22] 100% | residual activity [23] 76% | residual activity [24] 100% | residual activity [25] 98% | residual activity [26] 100% | inhibition [27] -1.48% | residual activity [28] 86% | residual activity [29] 91% | inhibition [30] 0.0525% | residual activity [31] 100% | residual activity [32] 100% | residual activity [33] 75% | residual activity [34] 100% | residual activity [35] 87% | residual activity [36] 100% | residual activity [37] 100% | residual activity [38] 100% | residual activity [39] 80% | residual activity [40] 100% | residual activity [41] 98% | residual activity [42] 93% | residual activity [43] 100% | residual activity [44] 99% | residual activity [45] 100%

CN([C@@H]1CCc2c(CC(=O)O)c3ccccc3n2C1)S(=O)(=O)c1ccc(F)cc1 [MK-7246]
inactive: residual activity [1] 77% | residual activity [2] 95% | residual activity [3] 87% | residual activity [4] 100% | residual activity [5] 100% | residual activity [6] 100% | residual activity [7] 100% | residual activity [8] 92% | residual activity [9] 100% | residual activity [10] 100% | residual activity [11] 100% | residual activity [12] 97% | residual activity [13] 100% | residual activity [14] 100% | residual activity [15] 100% | residual activity [16] 76% | residual activity [17] 100% | residual activity [18] 100% | residual activity [19] 79% | residual activity [20] 100% | residual activity [21] 99% | residual activity [22] 100% | residual activity [23] 100% | residual activity [24] 100% | residual activity [25] 100% | residual activity [26] 100% | inhibition [27] 2.42% | residual activity [28] 100% | residual activity [29] 72% | inhibition [30] -7.68% | residual activity [31] 100% | residual activity [32] 100% | residual activity [33] 85% | residual activity [34] 100% | residual activity [35] 94% | residual activity [36] 100% | residual activity [37] 100% | residual activity [38] 100% | residual activity [39] 78% | residual activity [40] 100% | residual activity [41] 100% | residual activity [42] 74% | residual activity [43] 100% | residual activity [44] 100% | residual activity [45] 100%
